Test results: US9155696B2, “Pharmaceutical compositions” (Novartis AG, priority 2008, dated 2015)

Test system: erythrocytes of female and male blood donor
Assay: Hemolysis study of solvents
Assay type: cell-based
Settings: for Hemolysis [%]: female and male blood donor (n = 4)
Method: To outline the suitability of PEG500DME as a solvent for parenteral use, a hemolysis study was performed: […]

[1] = dilution 1:2 with 0.9% NaCl solution
[2] = dilution 1:4 with 0.9% NaCl solution
[3] = dilution 1:8 with 0.9% NaCl solution
[4] = dilution 1:16 with 0.9% NaCl solution
[5] = dilution 1:32 with 0.9% NaCl solution
[6] = dilution 1:64 with 0.9% NaCl solution
[7] = dilution 1:128 with 0.9% NaCl solution

For `CN1CCCC1=O` [NMP, 1-methyl-2-pyrrolidinone], the “Hemolysis [%] in donor one” value (dilution 0 (pure solvent)) was 28%, the “Hemolysis [%] in donor one” value [1] was 0% and the “Hemolysis [%] in donor one” value [2] was 0%. For the same molecule, the “Hemolysis [%] in donor one” value [3] was 0%, the “Hemolysis [%] in donor one” value [4] was 0% and the “Hemolysis [%] in donor one” value [5] was 0%. The “Hemolysis [%] in donor one” value [6] was 0%, the “Hemolysis [%] in donor one” value [7] was 0% and the “Hemolysis [%] in donor two” value (dilution 0 (pure solvent)) was 54%. The “Hemolysis [%] in donor two” value [1] was 10%, the “Hemolysis [%] in donor two” value [2] was 1% and the “Hemolysis [%] in donor two” value [3] was 1%. The “Hemolysis [%] in donor two” value [4] was 1%, the “Hemolysis [%] in donor two” value [5] was 1% and the “Hemolysis [%] in donor two” value [6] was 1%. For the same molecule, the “Hemolysis [%] in donor two” value [7] was 1%, the “Hemolysis [%]” value [1] was 7.8 ± 5.6% and the “Hemolysis [%]” value [2] was 0.5 ± 0.6%. For the same molecule, the “Hemolysis [%]” value [3] was 0.3 ± 0.5%, the “Hemolysis [%]” value [4] was 0.3 ± 0.5% and the “Hemolysis [%]” value [5] was 0.3 ± 0.5%. The “Hemolysis [%]” value [6] was 0.3 ± 0.5% and the “Hemolysis [%]” value [7] was 0.3 ± 0.5%.
